In US4533553A, “Polycyclic ether antibiotic” (priority 1983, dated 1985):
Structures can show the parent of a compound that is named as a salt.

Key:
Neisseria sicca = assay: in vitro MIC test; format: cell-based; conditions: strain 66C000, 24 hours
Method: (§1) In Table I, below, the results of in vitro MIC tests are summarized. For this test each organism is inoculated in a series of test tubes containing nutrient medium and varying concentrations of Compound 53,607 to determine the minimal concentration of the antibiotic in mcg/ml which inhibits the growth of the organism over a period of 24 hours (MIC).

Bacteroides vulgatis = assay: in vitro MIC test; format: cell-based; conditions: strain 78E032, 24 hours
Method: as §1

Haemophilus influenza = assay: in vitro MIC test; format: cell-based; conditions: 24 h
Method: as §1

Corynebacterium pyogenes = assay: in vitro MIC test; format: cell-based; conditions: Rhodococcus (subgen. Prescottella) equi; strain 11D001, 24 hours
Method: as §1

[1] = tested on: Staphylococcus epidermidis; assay: in vitro MIC test; format: cell-based; conditions: 24 h
Method: as §1

Treponema hyodysenteriae = assay: in vitro MIC test; format: cell-based; conditions: Brachyspira hyodysenteriae, 24 h
Method: as §1

Staphylococcus aureus = assay: in vitro MIC test; format: cell-based; conditions: 24 h
Method: as §1

Bacillus subtilis = assay: in vitro MIC test; format: cell-based; conditions: strain 06A001, 24 hours
Method: as §1

Pasteurella multocida = assay: in vitro MIC test; format: cell-based; conditions: strain 59A001, 24 hours
Method: as §1

Bacteroides fragilis = assay: in vitro MIC test; format: cell-based; conditions: 24 h
Method: as §1

[2] = tested on: Fusobacterium necrophorum; assay: in vitro MIC test; format: cell-based; conditions: strain 84C004, 24 hours
Method: as §1

Streptococcus pyogenes = assay: in vitro MIC test; format: cell-based; conditions: 24 h
Method: as §1

Streptococcus faecalis = assay: in vitro MIC test; format: cell-based; conditions: Enterococcus faecalis; strain 02A006, 24 hours
Method: as §1

Clostridium perfringens = assay: microbe, parasite or virus in culture; format: cell-based
rumen fluid = assay: in vitro rumen technique, propionic acid production; design: species or system cow; conditions: 5 μg./ml.; comparison with Salinomycin
Method: The value of animal feeds generally has been determined directly by feeding the animal. British Patent Specification No. 1,197,826 details an in vitro rumen technique whereby the changes occurring in feeds brought about by microorganisms are measured more readily and with great accuracy in the evaluation of animal feeds. This technique involves the use of an apparatus in which the digestive processes of the animals are conducted and studied in vitro. The animal feeds, rumen inoculum and various growth promotants are introduced into and withdrawn from a laboratory unit under carefully controlled conditions and the changes taken place are studied critically and progressively during the consumption of the feed by the microorganisms. […] The change in propionic acid content is expressed as percent of the propionic acid content found in the control rumen fluid. Long term in vivo feeding studies are used to show a reliable correlation between propionic acid increase in the rumen fluid and improved animal performance.
Rumen fluid is collected from a fistulated cow which is fed on a commercial fattening ration plus hay. The rumen fluid is immediately filtered through cheese cloth, and 10 ml added to a 50 ml conical flask containing 400 mg. of standard substrate (68% corn starch+17% cellulose+15% extracted soybean meal), 10 ml. of a pH 6.8 buffer and the test compound. The flasks are gassed with oxygen free nitrogen for about two minutes, and incubated in a shaking water bath at 39° C. for about 16 hours. All tests are conducted in triplicate.
After incubation, 5 ml. of the sample is mixed with 1 ml. of 25% metaphosphoric acid. After 10 minutes 0.25 ml. of formic acid is added and the mixture centrifuged at 1,500 r.p.m. for 10 minutes. Samples are then analyzed by gas-liquid chromatograhy by the method of D. W. Kellog, J. Dairy Science, 52, 1690 (1969). Peak heights for acetic, propionic and butyric acids are determined for samples from untreated and treated incubation flasks.

Q: How did the MIC (Neisseria sicca) turn out when `CC(=CC(C)C1OC2(CCC(C)(C3CCC(C)C4(OC(C5OC(O)(CO)C(C)CC5C)CC4C)O3)O2)CC(O)C1C)C(=O)C(C)CC(C)C(=O)O` (centres unmarked) [53,607 (sodium salt)] was run?
A: 25 µg/mL

Q: And the MIC (Bacteroides vulgatis)?
A: 3.12 µg/mL

Q: What about the MIC (Haemophilus influenza; strain 54A036, 24 hours) of the same compound?
A: 6.25 µg/mL

Q: What about the MIC (Haemophilus influenza; strain 54A037, 24 hours) of the same compound?
A: 3.12 µg/mL

Q: And the MIC (Haemophilus influenza; strain 54A059, 24 hours)?
A: 12.5 µg/mL

Q: What about the MIC (Corynebacterium pyogenes) of the same compound?
A: 25 µg/mL

Q: And the MIC ([1]; strain 01B087R)?
A: 0.78 µg/mL

Q: And the MIC ([1]; strain 01B111RR)?
A: 0.78 µg/mL

Q: What about the MIC ([1]; strain 01B126, 24 hours) of the same compound?
A: 1.56 µg/mL

Q: What about the MIC (Treponema hyodysenteriae; strain 94A001, 24 hours) of the same compound?
A: 0.39 µg/mL

Q: What about the MIC (Treponema hyodysenteriae; strain 94A002, 24 hours) of the same compound?
A: 0.098 µg/mL

Q: And the MIC (Staphylococcus aureus; strain 01A005, 24 hours)?
A: 0.78 µg/mL

Q: What about the MIC (Staphylococcus aureus; strain 01A052, 24 hours) of the same compound?
A: 0.78 µg/mL

Q: And the MIC (Staphylococcus aureus; strain 01A110, 24 hours)?
A: 1.56 µg/mL

Q: And the MIC (Staphylococcus aureus; strain 01A400, 24 hours)?
A: 1.56 µg/mL

Q: And the MIC (Bacillus subtilis)?
A: 0.39 µg/mL

Q: And the MIC (Pasteurella multocida)?
A: > 200 µg/mL

Q: What about the MIC (Bacteroides fragilis; strain 78C004, 24 hours) of the same compound?
A: 12.5 µg/mL

Q: What about the MIC (Bacteroides fragilis; strain 78C009, 24 hours) of the same compound?
A: 6.25 µg/mL

Q: What about the MIC (Bacteroides fragilis; strain 78C010, 24 hours) of the same compound?
A: 6.25 µg/mL

Q: And the MIC [2]?
A: 3.12 µg/mL

Q: What about the MIC (Streptococcus pyogenes) of the same compound?
A: < 0.01 µg/mL

Q: What about the MIC (Streptococcus faecalis) of the same compound?
A: 1.56 µg/mL

Q: What about the MIC (Clostridium perfringens; Clostridium perfringens, 24 h) of the same compound?
A: 0.98 µg/mL

Q: And the MIC (Clostridium perfringens; strain 10A003, 24 hours)?
A: 0.98 µg/mL

Q: For `CC[C@@H](C(=O)[C@@H](C)[C@@H](O)[C@H](C)[C@@H]1O[C@@H]([C@@H](CC)C(=O)O)CC[C@@H]1C)[C@H]1O[C@]2(C=C[C@@H](O)[C@]3(CC[C@@](C)([C@H]4CC[C@](O)(CC)[C@H](C)O4)O3)O2)[C@H](C)C[C@@H]1C` [Salinomycin, reference compound], which “increase in propionic acid” value (rumen fluid) is on record?
A: about 52%
